Results: patent publication US6406679B1, “Use of HL-60-related lectins in drug delivery and detection of lectin-expressing cells” (Incyte Pharmaceuticals, Inc., priority 1992, dated 2002)

Columns and labels:
[1] = molecular target: epitope recognized by M1 antibody on human blood cells (macrophages) (human); experiment: flow cytometry of human blood cells pretreated with lectin, then stained with fluoresceinated M1 antibody, against untreated control
[2] = molecular target: epitope recognized by M3 antibody on human blood cells (macrophages) (human); experiment: flow cytometry of human blood cells pretreated with lectin, then stained with fluoresceinated M3 antibody, against untreated control
[3] = tested on: trypsinized rabbit erythrocytes; experiment: Agglutination of trypsinized rabbit erythrocytes; format: cell-based; conditions: control, FIG. 5
From the text: (§1) Biological activity of the inventive 14 kD lectins 1) isolated from HL-60 cells, 2) isolated from placenta tissue or 3) prepared recombinantly from E. coli cells transfected with lectin cDNA operably linked to a secretion signal was ascertained by agglutination of trypsinized rabbit erythrocytes.

[4] = molecular target: T1, 14 kD lectins (HL-60 cells, placenta, recombinant E. coli) (Homo sapiens, UniProt P09382); experiment: Inhibition by competing sugars of lectin-induced agglutination of trypsinized rabbit erythrocytes; format: biochemical; conditions: FIG. 5
T1 construct: the N-terminal methionine of the HL-60 lectin appears to be cleaved, and the remaining protein can be acetylated; secretion signal (only the E. coli-made preparation); made in house; host or cells: three preparations tested side by side: purified from HL-60 cells, purified from human placenta tissue, recombinant from E. coli (secretion signal)
T1 sequence (P09382 2-135 limits assumed): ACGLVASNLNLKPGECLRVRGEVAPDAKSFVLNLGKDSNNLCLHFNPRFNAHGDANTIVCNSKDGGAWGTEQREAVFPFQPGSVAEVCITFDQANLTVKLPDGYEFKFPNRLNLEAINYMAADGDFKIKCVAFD
From the text: as §1

In the case of “recombinant 14 kD beta-galactoside-binding soluble lectin (HL-60 / placenta lectin) produced in E. coli (from UniProt P09382 2-135)”, the reduction of the percent of positive cells [1] is reported as 33% and the reduction of the percent of positive cells [2] is reported as 26%.
Work on Concanavalin A yielded an agglutination end-point [3] of 1.5 µg/mL.
For OC[C@H]1O[C@@H](O[C@H]2[C@H](O)[C@@H](O)[C@H](O)O[C@@H]2CO)[C@H](O)[C@@H](O)[C@H]1O [β-lactose], the “concentrations inhibiting agglutination of the erythrocytes” value [4] was “greater than 1.25 mM”.
With OC[C@H]1O[C@@H](S[C@@H]2O[C@H](CO)[C@H](O)[C@H](O)[C@H]2O)[C@H](O)[C@@H](O)[C@H]1O [Thiodigalactoside, thiodigalactoside] the “concentrations inhibiting agglutination of the erythrocytes” value [4] was “greater than 0.31 mM”.
